# Measurements as given in ChEMBL document CHEMBL1201862, “PubChem BioAssay data set” (2004).
#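 Test compounds were applied to cells in 96-well plates for 48 hours at 5 doses. GI50: concentration for 50% inhibition of growth.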 Active and inactive are the calls of the source. Cut-off read from the data, not from the text of the source: active = GI50 up to about 1.1 µM and inactive = higher.
# How the values were obtained:
# Test in all cases: NCI tumour cell line growth inhibition, 48 h
# SF-295 = tested on: SF-295
# PC-3 = tested on: PC-3
# ACHN = tested on: ACHN
# DU-145 = tested on: DU-145
# MDA-MB-435 = tested on: MDA-MB-435
# A549 = tested on: A549
# NCI-H460 = tested on: NCI-H460
# IGROV-1 = tested on: IGROV-1
# Malme-3M = tested on: Malme-3M
# OVCAR-4 = tested on: OVCAR-4
# CAKI-1 = tested on: CAKI-1
# RXF 393 = tested on: RXF 393
# U-251 = tested on: U-251
# SF-539 = tested on: SF-539
# MDA-N = tested on: MDA-N
# HOP-92 = tested on: HOP-92
# 786-0 = tested on: 786-0
# OVCAR-3 = tested on: OVCAR-3
# SR = tested on: SR
# EKVX = tested on: EKVX
# NCI/ADR-RES = tested on: NCI/ADR-RES
# TK-10 = tested on: TK-10
# MCF7 = tested on: MCF7
# OVCAR-5 = tested on: OVCAR-5
# UO-31 = tested on: UO-31
# HCT-15 = tested on: HCT-15
# COLO 205 = tested on: COLO 205
# MOLT-4 = tested on: MOLT-4
# Hs-578T = tested on: Hs-578T
# SF-268 = tested on: SF-268
# OVCAR-8 = tested on: OVCAR-8
# SK-MEL-5 = tested on: SK-MEL-5
# SK-MEL-28 = tested on: SK-MEL-28
# SW-620 = tested on: SW-620
# SK-MEL-2 = tested on: SK-MEL-2
# NCI-H226 = tested on: NCI-H226
# T47D = tested on: T47D
# SNB-75 = tested on: SNB-75
# BT-549 = tested on: BT-549
# HOP-62 = tested on: HOP-62
# LOX IMVI = tested on: LOX IMVI
# K562 = tested on: K562
# MDA-MB-231 = tested on: MDA-MB-231
# SN12C = tested on: SN12C
# HCT-116 = tested on: HCT-116
# SK-OV-3 = tested on: SK-OV-3
# NCI-H23 = tested on: NCI-H23
# A498 = tested on: A498
# HT-29 = tested on: HT-29
# KM12 = tested on: KM12
# M14 = tested on: M14
# CCRF-CEM = tested on: CCRF-CEM
# UACC-62 = tested on: UACC-62
# HCC 2998 = tested on: HCC 2998
# HL-60 = tested on: HL-60
# RPMI-8226 = tested on: RPMI-8226
# SNB-19 = tested on: SNB-19
# UACC-257 = tested on: UACC-257
# NCI-H522 = tested on: NCI-H522
compound,measurement,setting,value
O=Cc1ccc2c(c1)CC1(C2)Cc2ccc3c(c2C1)CCC3 (stereo not given),GI50,SF-295,5.85 µM (inactive)
same,GI50,PC-3,5.51 µM (inactive)
same,GI50,ACHN,32.1 µM (inactive)
same,GI50,DU-145,22.1 µM (inactive)
same,GI50,MDA-MB-435,2.46 µM (inactive)
same,GI50,A549,37.8 µM (inactive)
same,GI50,NCI-H460,17.2 µM (inactive)
same,GI50,IGROV-1,16.4 µM (inactive)
same,GI50,Malme-3M,6.22 µM (inactive)
same,GI50,OVCAR-4,10.8 µM (inactive)
same,GI50,CAKI-1,21.1 µM (inactive)
same,GI50,RXF 393,11.2 µM (inactive)
same,GI50,U-251,8.51 µM (inactive)
same,GI50,SF-539,9.02 µM (inactive)
same,GI50,MDA-N,2.19 µM (inactive)
same,GI50,HOP-92,17 µM (inactive)
same,GI50,786-0,14.4 µM (inactive)
same,GI50,OVCAR-3,6.68 µM (inactive)
same,GI50,SR,4.42 µM (inactive)
same,GI50,EKVX,24.3 µM (inactive)
same,GI50,NCI/ADR-RES,7.19 µM (inactive)
same,GI50,TK-10,16.6 µM (inactive)
same,GI50,MCF7,4.43 µM (inactive)
same,GI50,OVCAR-5,> 44.9 µM (inactive)
same,GI50,UO-31,11.9 µM (inactive)
same,GI50,HCT-15,8.51 µM
same,GI50,COLO 205,20.8 µM (inactive)
same,GI50,MOLT-4,6.41 µM (inactive)
same,GI50,Hs-578T,7.41 µM (inactive)
same,GI50,SF-268,12.9 µM (inactive)
same,GI50,OVCAR-8,13.1 µM (inactive)
same,GI50,SK-MEL-5,4.81 µM (inactive)
same,GI50,SK-MEL-28,12.7 µM (inactive)
same,GI50,SW-620,3.98 µM (inactive)
same,GI50,SK-MEL-2,4.02 µM (inactive)
same,GI50,NCI-H226,16.3 µM (inactive)
same,GI50,T47D,18.2 µM (inactive)
same,GI50,SNB-75,7.24 µM (inactive)
same,GI50,BT-549,5.05 µM (inactive)
same,GI50,HOP-62,9.4 µM (inactive)
same,GI50,LOX IMVI,4.73 µM (inactive)
same,GI50,K562,6.34 µM (inactive)
same,GI50,MDA-MB-231,3.76 µM (inactive)
same,GI50,SN12C,8.45 µM (inactive)
same,GI50,HCT-116,6.82 µM (inactive)
same,GI50,SK-OV-3,18.2 µM (inactive)
same,GI50,NCI-H23,14.6 µM (inactive)
same,GI50,A498,23.8 µM (inactive)
same,GI50,HT-29,19 µM (inactive)
same,GI50,KM12,11.4 µM (inactive)
same,GI50,M14,7 µM (inactive)
same,GI50,CCRF-CEM,5.14 µM (inactive)
same,GI50,UACC-62,6.56 µM (inactive)
same,GI50,HCC 2998,24.3 µM (inactive)
same,GI50,HL-60,3.75 µM (inactive)
same,GI50,RPMI-8226,6.47 µM (inactive)
same,GI50,SNB-19,7.08 µM (inactive)
same,GI50,UACC-257,16 µM (inactive)
same,GI50,NCI-H522,34.8 µM (inactive)
CN(CCCNC(=O)c1nn(-c2ccccc2)c2c1Cc1ccccc1-2)CCCNC(=O)c1nn(-c2ccccc2)c2c1Cc1ccccc1-2,GI50,SF-295,1.84 µM (inactive)
same,GI50,PC-3,1.69 µM (inactive)
same,GI50,ACHN,1.73 µM (inactive)
same,GI50,DU-145,1.7 µM (inactive)
same,GI50,MDA-MB-435,1.23 µM (inactive)
same,GI50,A549,1.66 µM (inactive)
same,GI50,NCI-H460,1.66 µM (inactive)
same,GI50,IGROV-1,1.51 µM (inactive)
same,GI50,Malme-3M,1.5 µM (inactive)
same,GI50,OVCAR-4,0.929 µM (active)
same,GI50,CAKI-1,1.38 µM (inactive)
same,GI50,RXF 393,1.75 µM (inactive)
same,GI50,U-251,1.7 µM (inactive)
same,GI50,SF-539,1.59 µM (inactive)
same,GI50,MDA-N,1.5 µM (inactive)
same,GI50,HOP-92,1.57 µM (inactive)
same,GI50,786-0,1.65 µM (inactive)
same,GI50,OVCAR-3,1.71 µM (inactive)
same,GI50,SR,0.191 µM (active)
same,GI50,EKVX,1.83 µM (inactive)
same,GI50,NCI/ADR-RES,1.63 µM (inactive)
same,GI50,TK-10,1.74 µM (inactive)
same,GI50,MCF7,1.63 µM (inactive)
same,GI50,OVCAR-5,1.75 µM (inactive)
same,GI50,UO-31,1.61 µM (inactive)
same,GI50,HCT-15,1.64 µM
same,GI50,COLO 205,1.45 µM (inactive)
same,GI50,MOLT-4,1.12 µM (active)
same,GI50,Hs-578T,1.25 µM (inactive)
same,GI50,SF-268,1.63 µM (inactive)
same,GI50,OVCAR-8,1.73 µM (inactive)
same,GI50,SK-MEL-5,1.57 µM (inactive)
same,GI50,SK-MEL-28,1.59 µM (inactive)
same,GI50,SW-620,1.31 µM (inactive)
same,GI50,SK-MEL-2,1.69 µM (inactive)
same,GI50,T47D,1.92 µM (inactive)
same,GI50,SNB-75,1.36 µM (inactive)
same,GI50,BT-549,1.56 µM (inactive)
same,GI50,HOP-62,1.58 µM (inactive)
same,GI50,LOX IMVI,1.51 µM (inactive)
same,GI50,K562,0.55 µM (active)
same,GI50,MDA-MB-231,1.76 µM (inactive)
same,GI50,SN12C,1.76 µM (inactive)
same,GI50,HCT-116,1.65 µM (inactive)
same,GI50,SK-OV-3,1.72 µM (inactive)
same,GI50,NCI-H23,1.57 µM (inactive)
same,GI50,A498,1.69 µM (inactive)
same,GI50,HT-29,1.73 µM (inactive)
same,GI50,KM12,1.9 µM (inactive)
same,GI50,M14,1.05 µM (active)
same,GI50,CCRF-CEM,1 µM (active)
same,GI50,UACC-62,1.77 µM (inactive)
same,GI50,HCC 2998,1.42 µM (inactive)
same,GI50,HL-60,0.603 µM (active)
same,GI50,RPMI-8226,1.72 µM (inactive)
same,GI50,SNB-19,1.61 µM (inactive)
same,GI50,UACC-257,1.72 µM (inactive)
same,GI50,NCI-H522,1.35 µM (inactive)
COc1cc(/C=N/N=C2NCCCCN2)ccc1O,GI50,SF-295,61.7 µM (inactive)
same,GI50,PC-3,> 100 µM (inactive)
same,GI50,ACHN,> 100 µM (inactive)
same,GI50,DU-145,> 100 µM (inactive)
same,GI50,MDA-MB-435,> 100 µM (inactive)
same,GI50,A549,> 100 µM (inactive)
same,GI50,NCI-H460,> 100 µM (inactive)
same,GI50,IGROV-1,> 100 µM (inactive)
same,GI50,Malme-3M,> 100 µM (inactive)
same,GI50,OVCAR-4,> 100 µM (inactive)
same,GI50,RXF 393,> 100 µM (inactive)
same,GI50,U-251,> 100 µM (inactive)
same,GI50,SF-539,> 100 µM (inactive)
same,GI50,MDA-N,> 100 µM (inactive)
same,GI50,HOP-92,> 100 µM (inactive)
same,GI50,786-0,> 100 µM (inactive)
same,GI50,OVCAR-3,> 100 µM (inactive)
same,GI50,SR,> 100 µM (inactive)
same,GI50,EKVX,> 100 µM (inactive)
same,GI50,NCI/ADR-RES,> 100 µM (inactive)
same,GI50,TK-10,> 100 µM (inactive)
same,GI50,MCF7,50.2 µM (inactive)
same,GI50,OVCAR-5,> 100 µM (inactive)
same,GI50,UO-31,> 100 µM (inactive)
same,GI50,HCT-15,> 100 µM
same,GI50,COLO 205,> 100 µM (inactive)
same,GI50,MOLT-4,> 100 µM (inactive)
same,GI50,Hs-578T,> 100 µM (inactive)
same,GI50,SF-268,> 100 µM (inactive)
same,GI50,OVCAR-8,> 100 µM (inactive)
same,GI50,SK-MEL-5,40 µM (inactive)
same,GI50,SK-MEL-28,> 100 µM (inactive)
same,GI50,SW-620,> 100 µM (inactive)
same,GI50,SK-MEL-2,> 100 µM (inactive)
same,GI50,NCI-H226,> 100 µM (inactive)
same,GI50,T47D,53.8 µM (inactive)
same,GI50,SNB-75,> 100 µM (inactive)
same,GI50,BT-549,> 100 µM (inactive)
same,GI50,HOP-62,> 100 µM (inactive)
same,GI50,LOX IMVI,> 100 µM (inactive)
same,GI50,K562,58.7 µM (inactive)
same,GI50,MDA-MB-231,> 100 µM (inactive)
same,GI50,SN12C,> 100 µM (inactive)
same,GI50,HCT-116,> 100 µM (inactive)
same,GI50,SK-OV-3,> 100 µM (inactive)
same,GI50,NCI-H23,> 100 µM (inactive)
same,GI50,A498,96.2 µM (inactive)
same,GI50,HT-29,80 µM (inactive)
same,GI50,KM12,> 100 µM (inactive)
same,GI50,M14,> 100 µM (inactive)
same,GI50,CCRF-CEM,> 100 µM (inactive)
same,GI50,UACC-62,> 100 µM (inactive)
same,GI50,HCC 2998,> 100 µM (inactive)
same,GI50,HL-60,> 100 µM (inactive)
same,GI50,RPMI-8226,> 100 µM (inactive)
same,GI50,SNB-19,> 100 µM (inactive)
same,GI50,UACC-257,> 100 µM (inactive)
same,GI50,NCI-H522,> 100 µM (inactive)
